In brackets after ≈: the same amount, converted by molar mass. Where two headings read alike, the source gives them in different places.
Columns and labels:
Escherichia coli [1] = experiment: standard disc-plate method, zone of inhibition; type: cell-based; set-up: key: --: A dash indicates no observed zone of inhibition; hazy zone; settings: 0.01 mg./ml.; Table IV
Text: (§1) The in vitro antimicrobial activity of the 3-halo cephalosporins is illustrated by the data in the following tables. Table I contains the antimicrobial activity for 7-[2-(2-thienyl)acetamido]-3-chloro-3-cephem-4-carboxylic acid obtained in the standard Disc-plate method. The numerical values are the diameter in millimeters of the zones of inhibition observed with the named organisms.
(§2) In Table IV below, the in vitro antimicrobial activity of 7-[2-(2-thienyl)acetamido]-3-bromo-3-cephem-4-carboxylic acid is presented for several illustrative microorganisms. The data presented were obtained in the standard disc-plate method with the numerical values recording the diameter in millimeters of the zones of inhibition observed with the named microorganisms.

Bacillus subtilis = experiment: standard disc-plate method, zone of inhibition; type: cell-based; settings: Table IV, read-out: Zone of Inhibition (diameter in mm); for zone of inhibition at 10 µg/mL: 0.01 mg./ml.; for zone of inhibition at 100 µg/mL: 0.1 mg./ml.; for zone of inhibition at 1000 µg/mL: 1.0 mg./ml.
Text: as §1, §2

Proteus vulgaris = experiment: standard disc-plate method, zone of inhibition; type: cell-based; settings: Table IV, read-out: Zone of Inhibition (diameter in mm)
Text: as §1, §2

Klebsiella pneumoniae [2] = experiment: standard disc-plate method, zone of inhibition; type: cell-based; settings: Table IV, read-out: Zone of Inhibition (diameter in mm)
Text: as §1, §2

Mycobacterium avium = experiment: standard disc-plate method, zone of inhibition; type: cell-based; settings: Table IV, read-out: Zone of Inhibition (diameter in mm)
Text: as §1, §2

[3] = system: Pseudomonas solanacearcum; experiment: standard disc-plate method, zone of inhibition; type: cell-based; set-up: key to Zone of Inhibition (diameter in mm): --: A dash indicates no observed zone of inhibition; hazy zone; settings: Table IV
Text: as §1, §2

Salmonella gallinarum = experiment: standard disc-plate method, zone of inhibition; type: cell-based; set-up: key to Zone of Inhibition (diameter in mm): --: A dash indicates no observed zone of inhibition; hazy zone; settings: Table IV
Text: as §1, §2

[4] = system: Penicillin Resistant Staphylococcus; experiment: Gradient Plate technique, MIC; type: cell-based; settings: read-out: Minimum Inhibitory Concentration
Text: The following Table II lists the minimum inhibitory concentration (MIC) for 7-[2-(2-thienyl)acetamido]-3-chloro-3-cephem-4-carboxylic acid against penicillin resistant Staphylococcus both in the presence of and absence of serum. The MIC values were obtained by the Gradient Plate technique carried out essentially as described by Bryson and Szybalski, Science, 116, 45 (1952). […]

Aerobacter aerogenes = experiment: Gradient Plate technique, MIC; type: cell-based; settings: Klebsiella aerogenes, read-out: Minimum Inhibitory Concentration
Text: (§3) The following Table II lists the minimum inhibitory concentration (MIC) for 7-[2-(2-thienyl)acetamido]-3-chloro-3-cephem-4-carboxylic acid against penicillin resistant Staphylococcus both in the presence of and absence of serum. The MIC values were obtained by the Gradient Plate technique carried out essentially as described by Bryson and Szybalski, Science, 116, 45 (1952).
(§4) In Table III, below, the MIC values for the test compound of Tables I and II against representative gram-negative organisms is presented. The data were obtained by the Gradient Plate technique.
(§5) The minimum inhibitory concentrations for 7-[2-(2-thienyl)acetamido]-3-bromo-3-cephem-4-carboxylic acid against representative gram-negative bacteria is presented in Table VI. The data were obtained by the Gradient Plate Method.
(§6) Tables VII and VIII list the minimum inhibitory concentrations of the test compound effective against representative penicillin resistant Staphylococcus strains, while […] the MIC values obtained against representative gram-negative microorganisms. The data were obtained by the Gradient Plate method.

Serratia marcescens [5] = experiment: Gradient Plate technique, MIC; type: cell-based; settings: read-out: Minimum Inhibitory Concentration
Text: as §3, §4, §5, §6

Klebsiella pneumoniae [6] = experiment: Gradient Plate technique, MIC; type: cell-based; settings: read-out: Minimum Inhibitory Concentration
Text: as §3, §4, §5, §6

Shigella sp. = experiment: Gradient Plate technique, MIC; type: cell-based; settings: read-out: Minimum Inhibitory Concentration
Text: as §3, §4, §5, §6

Pseudomonas aeruginosa [7] = experiment: Gradient Plate technique, MIC; type: cell-based; settings: read-out: Minimum Inhibitory Concentration
Text: as §3, §4, §5, §6

Escherichia coli [8] = experiment: Gradient Plate technique, MIC; type: cell-based; settings: read-out: Minimum Inhibitory Concentration
Text: as §3, §4, §5, §6

Salmonella heidelberg = experiment: Gradient Plate technique, MIC; type: cell-based; settings: Salmonella enterica, read-out: Minimum Inhibitory Concentration
Text: as §3, §4, §5, §6

[9] = system: Methicillin resistant Staphylococcus; experiment: Gradient Plate technique, MIC; type: cell-based; settings: Staphylococcus; Clinical Isolate X400 (methicillin resistant); No Serum; read-out: Minimum Inhibitory Concentration
Electrometric titration = type: physicochemical; settings: 66% aqueous dmf; only or first pKa; read-out: pKa
Candida albicans = experiment: standard disc-plate method, zone of inhibition; type: cell-based; set-up: key: --: A dash indicates no observed zone of inhibition; hazy zone; settings: Table IV
Text: as §2

Neurospora sp. = experiment: standard disc-plate method, zone of inhibition; type: cell-based; set-up: key: --: A dash indicates no observed zone of inhibition; hazy zone; settings: Table IV
Text: as §2

[10] = system: Trichophyton mentagrophytes; experiment: standard disc-plate method, zone of inhibition; type: cell-based; set-up: key: --: A dash indicates no observed zone of inhibition; hazy zone; settings: Table IV
Text: as §2

Serratia marcescens [11] = experiment: standard disc-plate method, zone of inhibition; type: cell-based; set-up: key: --: A dash indicates no observed zone of inhibition; hazy zone; settings: Table IV
Text: as §2

Pseudomonas aeruginosa [12] = experiment: standard disc-plate method, zone of inhibition; type: cell-based; set-up: key: --: A dash indicates no observed zone of inhibition; hazy zone; settings: Table IV
Text: as §2

[13] = system: Saccharomyces pastorianus; experiment: standard disc-plate method, zone of inhibition; type: cell-based; set-up: key: --: A dash indicates no observed zone of inhibition; hazy zone; settings: Table IV
Text: as §2

SMILES: O=C(Cc1cccs1)NC1C(=O)N2C(C(=O)O)=C(Br)CS[C@H]12 (some centres unmarked) [7-[2-(2-Thienyl)acetamido]-3-bromo-3-cephem-4-carboxylic acid]
- Zone of Inhibition (diameter in mm) (Escherichia coli [1]): --
- zone of inhibition at 10 µg/mL (Bacillus subtilis; Synthetic medium): 43 mm
- zone of inhibition at 10 µg/mL (Bacillus subtilis): 23 mm
- zone of inhibition at 100 µg/mL (Bacillus subtilis; Synthetic medium): 50 mm
- zone of inhibition at 100 µg/mL (Bacillus subtilis): 38 mm
- zone of inhibition at 1000 µg/mL (Bacillus subtilis; Synthetic medium): 60 mm
- zone of inhibition at 1000 µg/mL (Bacillus subtilis): 37 mm
- zone of inhibition at 10 µg/mL (Proteus vulgaris; 0.01 mg./ml., hazy zone (h)): 11 mm
- zone of inhibition at 100 µg/mL (Proteus vulgaris; 0.1 mg./ml.): 20 mm
- zone of inhibition at 1000 µg/mL (Proteus vulgaris; 1.0 mg./ml.): 28 mm
- zone of inhibition at 10 µg/mL (Klebsiella pneumoniae [2]; 0.01 mg./ml.): 11 mm
- zone of inhibition at 100 µg/mL (Klebsiella pneumoniae [2]; 0.1 mg./ml.): 19 mm
- zone of inhibition at 1000 µg/mL (Klebsiella pneumoniae [2]; 1.0 mg./ml.): 28 mm
- zone of inhibition at 10 µg/mL (Mycobacterium avium; 0.01 mg./ml., hazy zone (h)): 33 mm
- zone of inhibition at 100 µg/mL (Mycobacterium avium; 0.1 mg./ml., hazy zone (h)): 42 mm
- zone of inhibition at 1000 µg/mL (Mycobacterium avium; 1.0 mg./ml.): 23 mm
- Zone of Inhibition (diameter in mm) ([3]; 0.01 mg./ml.): --
- zone of inhibition at 100 µg/mL ([3]; Pseudomonas, 0.1 mg./ml., hazy zone (h), read-out: Zone of Inhibition (diameter in mm)): 20 mm
- zone of inhibition at 1000 µg/mL ([3]; Pseudomonas, 1.0 mg./ml., read-out: Zone of Inhibition (diameter in mm)): 31 mm
- Zone of Inhibition (diameter in mm) (Salmonella gallinarum; 0.01 mg./ml.): --
- zone of inhibition at 100 µg/mL (Salmonella gallinarum; Salmonella enterica, GALLINARUM, 0.1 mg./ml., read-out: Zone of Inhibition (diameter in mm)): 15 mm
- zone of inhibition at 1000 µg/mL (Salmonella gallinarum; Salmonella enterica, GALLINARUM, 1.0 mg./ml., read-out: Zone of Inhibition (diameter in mm)): 30 mm
- MIC ([4]; Clinical Isolate V 32, No Serum): 0.6 µg/mL (≈ 1.49 µM)
- MIC ([4]; Clinical Isolate V 41, No Serum): 0.5 µg/mL (≈ 1.24 µM)
- MIC ([4]; Clinical Isolate V 84, No Serum): 0.4 µg/mL (≈ 0.992 µM)
- MIC ([4]; Clinical Isolate X 1.1, No Serum): 0.3 µg/mL (≈ 0.744 µM)
- MIC (Aerobacter aerogenes): 1 µg/mL (≈ 2.48 µM)
- MIC (Serratia marcescens [5]): > 200 µg/mL
- MIC (Klebsiella pneumoniae [6]): 1 µg/mL (≈ 2.48 µM)
- MIC (Shigella sp.): 19.8 µg/mL (≈ 49.1 µM)
- MIC (Pseudomonas aeruginosa [7]): > 200 µg/mL
- MIC (Escherichia coli [8]): 20.8 µg/mL (≈ 51.6 µM)
- MIC (Salmonella heidelberg): 1 µg/mL (≈ 2.48 µM)
- MIC [9]: > 20 µg/mL
- pKa (Electrometric titration): 4.4
- Zone of Inhibition (diameter in mm) (Candida albicans; 0.01 mg./ml.): --
- Zone of Inhibition (diameter in mm) (Candida albicans; 0.1 mg./ml.): --
- Zone of Inhibition (diameter in mm) (Candida albicans; 1.0 mg./ml.): --
- Zone of Inhibition (diameter in mm) (Neurospora sp.; 0.01 mg./ml.): --
- Zone of Inhibition (diameter in mm) (Neurospora sp.; 0.1 mg./ml.): --
- Zone of Inhibition (diameter in mm) (Neurospora sp.; 1.0 mg./ml.): --
- Zone of Inhibition (diameter in mm) ([10]; 0.01 mg./ml.): --
- Zone of Inhibition (diameter in mm) ([10]; 0.1 mg./ml.): --
- Zone of Inhibition (diameter in mm) ([10]; 1.0 mg./ml.): --
- Zone of Inhibition (diameter in mm) (Serratia marcescens [11]; 0.01 mg./ml.): --
- Zone of Inhibition (diameter in mm) (Serratia marcescens [11]; 0.1 mg./ml.): --
- Zone of Inhibition (diameter in mm) (Serratia marcescens [11]; 1.0 mg./ml.): --
- Zone of Inhibition (diameter in mm) (Pseudomonas aeruginosa [12]; 0.01 mg./ml.): --
- Zone of Inhibition (diameter in mm) (Pseudomonas aeruginosa [12]; 0.1 mg./ml.): --
- Zone of Inhibition (diameter in mm) (Pseudomonas aeruginosa [12]; 1.0 mg./ml.): --
- Zone of Inhibition (diameter in mm) ([13]; 0.01 mg./ml.): --
- Zone of Inhibition (diameter in mm) ([13]; 0.1 mg./ml.): --
- Zone of Inhibition (diameter in mm) ([13]; 1.0 mg./ml.): --
